C1=Cc2ccccc2Nc2ccccc21
solubility (mole fraction)
Conditions | 278.15 K | 283.15 K | 288.15 K | 293.15 K | 298.15 K | 303.15 K | 308.15 K | 313.15 K | 318.15 K | 323.15 K
in 1,4-dioxane | – | – | 0.0312 | 0.0349 | 0.0392 | 0.0423 | 0.0481 | 0.052 | 0.058 | 0.0632
in DMAc | 0.113 | 0.122 | 0.13 | 0.139 | 0.149 | 0.159 | 0.17 | 0.179 | 0.192 | 0.203
in DMF | 0.109 | 0.116 | 0.122 | 0.129 | 0.136 | 0.144 | 0.153 | 0.161 | 0.169 | 0.178
in NMP | 0.219 | 0.223 | 0.23 | 0.239 | 0.246 | 0.251 | 0.257 | 0.265 | 0.273 | 0.281
in acetone | 0.0162 | 0.0178 | 0.0197 | 0.0219 | 0.0242 | 0.0268 | 0.0296 | 0.0327 | 0.0363 | 0.04
in acetonitrile | 0.00245 | 0.00298 | 0.00345 | 0.00412 | 0.00489 | 0.00575 | 0.00676 | 0.00782 | 0.00933 | 0.0108
in ethyl acetate | 0.01 | 0.0116 | 0.0133 | 0.015 | 0.0172 | 0.0193 | 0.0214 | 0.0243 | 0.0271 | 0.03
in isobutyl acetate | 0.0105 | 0.0119 | 0.0132 | 0.0146 | 0.0161 | 0.0184 | 0.0206 | 0.023 | 0.0257 | 0.0285
in isopropyl acetate | 0.00918 | 0.0104 | 0.0118 | 0.0133 | 0.0152 | 0.0168 | 0.0181 | 0.0202 | 0.0222 | 0.0249
in methyl acetate | 0.00825 | 0.0092 | 0.0102 | 0.0118 | 0.0132 | 0.015 | 0.017 | 0.0192 | 0.0215 | 0.0239
in n-butyl acetate | 0.0133 | 0.0152 | 0.0171 | 0.0189 | 0.0208 | 0.0236 | 0.0261 | 0.0289 | 0.0321 | 0.0362
in n-propyl acetate | 0.0126 | 0.0143 | 0.0157 | 0.0175 | 0.0194 | 0.0215 | 0.0239 | 0.0267 | 0.0299 | 0.0331

Source: BigSolDB 2.1
